Reference: patent US10150757B2, “Quinazolinone derivatives as PARP inhibitors” (Janssen Pharmaceutica NV, priority 2004, dated 2018)

Biological target: T1, TANK-2 enzyme (Homo sapiens, UniProt Q9H2K2)
T1 construct: made in house
T1 sequence (Q9H2K2 1-1166): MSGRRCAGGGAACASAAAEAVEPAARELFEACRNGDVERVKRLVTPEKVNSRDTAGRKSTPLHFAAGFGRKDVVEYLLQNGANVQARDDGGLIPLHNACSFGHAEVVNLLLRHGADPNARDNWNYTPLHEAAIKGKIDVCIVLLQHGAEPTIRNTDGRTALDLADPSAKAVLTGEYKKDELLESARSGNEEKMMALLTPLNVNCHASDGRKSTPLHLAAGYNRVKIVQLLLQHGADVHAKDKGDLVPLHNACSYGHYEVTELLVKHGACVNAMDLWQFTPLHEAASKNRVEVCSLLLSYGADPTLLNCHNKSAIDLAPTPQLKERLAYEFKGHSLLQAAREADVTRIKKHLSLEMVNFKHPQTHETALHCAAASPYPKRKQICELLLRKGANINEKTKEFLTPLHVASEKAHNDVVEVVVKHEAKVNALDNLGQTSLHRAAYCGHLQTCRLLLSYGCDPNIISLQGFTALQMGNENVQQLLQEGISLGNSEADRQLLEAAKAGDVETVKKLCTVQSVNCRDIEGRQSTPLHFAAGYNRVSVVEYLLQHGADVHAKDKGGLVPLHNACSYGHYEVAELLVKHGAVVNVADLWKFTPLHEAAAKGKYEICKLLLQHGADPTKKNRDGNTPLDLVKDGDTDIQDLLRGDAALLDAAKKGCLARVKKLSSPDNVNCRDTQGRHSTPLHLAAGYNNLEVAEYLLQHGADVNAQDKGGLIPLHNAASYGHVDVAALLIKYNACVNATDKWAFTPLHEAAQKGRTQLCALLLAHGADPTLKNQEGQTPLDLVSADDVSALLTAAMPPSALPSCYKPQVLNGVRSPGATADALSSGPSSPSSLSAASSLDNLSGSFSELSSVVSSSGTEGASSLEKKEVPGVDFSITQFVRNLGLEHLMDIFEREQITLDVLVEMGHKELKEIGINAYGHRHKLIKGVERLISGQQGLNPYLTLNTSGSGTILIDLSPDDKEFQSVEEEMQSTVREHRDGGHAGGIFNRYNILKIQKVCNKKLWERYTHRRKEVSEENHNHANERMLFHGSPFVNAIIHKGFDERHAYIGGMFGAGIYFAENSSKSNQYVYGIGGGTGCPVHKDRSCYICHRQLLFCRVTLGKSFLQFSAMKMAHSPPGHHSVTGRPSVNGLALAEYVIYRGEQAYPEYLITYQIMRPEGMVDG
Experiment: In vitro scintillation proximity assay (SPA) for TANK-2 inhibitory activity
Format: biochemical
Conditions: auto-poly(ADP-ribosyl)ation; 96-well plate results if available, otherwise 384-well; read-out: in vitro SPA assay TANK-2 pIC50 (converted)
Experimental: In Vitro Scintillation Proximity Assay (SPA) for TANK-2 Inhibitory Activity
Compounds of the present invention were tested in an in vitro assay based on SPA technology with Ni Flash plates (96 or 384 well).
In principle, the assay relies upon SPA technology for the detection of auto-poly(ADP-ribosyl)ation of TANK-2 protein using [^3H]-nicotinamide adenine dinucleotide ([^3H]-NAD^+) as ADP-ribosyl donor.
A stock solution of [^3H]-NAD^+/NAD was made by adding 64.6 μl of [^3H]-NAD^+ (0.1 mCi/ml, supplier: Perkin Elmer) and 46.7 μl NAD-stock (10.7 mM, stored at −20° C., supplier Roche) to 1888.7 μl assay buffer (60 mM Tris/HCl, pH 7.4; 0.9 mM DTT; 6 mM MgCl2). The TANK-2 enzyme was produced as described in EP1238063. 60 μl of assay buffer, together with 1 μl of compound in DMSO, 20 μl of [^3H]-NAD^+/NAD and 20 μl of TANK-2 enzyme (final concentration 6 μg/ml) was added per well into a 96-well Ni-coated flash plate (Perkin Elmer). After incubation of the mixture for 120 min. at room temperature, the reaction was terminated by adding 60 μl of stop solution (42.6 mg NAD in 6 ml H2O). The plates were covered with a plate sealer and placed in a TopCountNXT™ (Packard) for scintillation counting. Values were expressed as counts per minute (cpm). For each experiment, controls (containing TANK-2 enzyme and DMSO without compound), a blank incubation (containing DMSO but no TANK-2 enzyme or compound) and samples (containing TANK-2 enzyme and compound dissolved in DMSO) were run in parallel. All compounds tested were dissolved and eventually further diluted in DMSO. In first instance, compounds were tested at a concentration of 10^−5M. […] In each test, the blank value was subtracted from both the control and the sample values. The control sample represented maximal TANK-2 enzyme activity. For each sample, the amount of cpm was expressed as a percentage of the mean cpm value of the controls. When appropriate, IC50-values (concentration of the drug, needed to reduce the TANK-2 enzyme activity to 50% of the control) were computed using linear interpolation between the experimental points just above and below the 50% level. Herein the effects of test compounds are expressed as pIC50 (the negative log value of the IC50-value). As reference compounds, 3-aminobenzamide and 4-amino-1,8-naphthalimide were included to validate the SPA assay. Herein the assay was described using 96-well plates. In the assay using 384-well plates the same final concentrations were used and volumes were adapted.

SMILES | IC50 [µM]
CCc1cc2cc(CN3CCN(CCNc4nc5ccccc5c(=O)[nH]4)CC3)ccc2nc1OC [Compound 3] | 1.77
O=c1[nH]c(NCCCN2CCC(Nc3cccc4ccccc34)CC2)nc2ccccc12 [Compound 42] | > 10
O=c1[nH]c(NCCCN2CCC(c3c[nH]c4ccccc34)CC2)nc2ccccc12 [Compound 20] | > 10
O=C(NC1CCN(CCCNc2nc3ccccc3c(=O)[nH]2)CC1)c1ccccc1 [Compound 23] | > 10
CO[C@H]1CN(CCCNc2nc3ccccc3c(=O)[nH]2)CC[C@H]1NC(=O)c1cc(Cl)cc2c1OC(C)(C)C2 [Compound 18] | > 10
Nc1c(Cl)cc(C(=O)NC2CCN(CCCNc3nc(O)c4ccccc4n3)CC2)c2c1CCO2 [Compound 45] | > 10
O=c1[nH]c(NCCCN2CCC(O)(c3ccc(Cl)cc3)CC2)nc2ccccc12 [Compound 2] | > 10
O=c1[nH]c(NCCN2CCC(c3n[nH]c4cc(F)ccc34)CC2)nc2ccc(Cl)cc12 [Compound 36] | > 10
O=c1[nH]c(NCCCN2CCC(c3n[nH]c4cc(F)ccc34)CC2)nc2ccccc12 [Compound 25] | > 10
Nc1c(Cl)cc(C(=O)OCC2CCN(CCNc3nc4ccccc4c(=O)[nH]3)CC2)c2c1OCCO2 [Compound 7] | 0.746
Cc1ccc2nc(NCCN3CCC(c4n[nH]c5cc(F)ccc45)CC3)[nH]c(=O)c2c1 [Compound 37] | > 10
CC1(C)Cc2c(N)c(Cl)cc(C(=O)NC3CCN(CCCNc4nc(O)c5ccccc5n4)CC3)c2O1 [Compound 4] | > 10
CO[C@@H]1CN(CCCNc2nc(O)c3ccccc3n2)CC[C@@H]1NC(=O)c1cc(Cl)c(N)c2c1OCCC2 [Compound 6] | > 10
O=c1[nH]c(NCCN2CCC(c3n[nH]c4cc(F)ccc34)CC2)nc2cc(Cl)ccc12 [Compound 31] | > 10
CC1(C)Cc2c(N)c(Cl)cc(C(=O)NC3CCN(CCCCNc4nc(O)c5ccccc5n4)CC3)c2O1 [Compound 5] | > 10
O=C(c1ccc(F)cc1)C1CCN(CCNc2nc3ccccc3c(=O)[nH]2)CC1 [Compound 46] | > 10
CO[C@@H]1CN(CCCNc2nc(O)c3ccccc3n2)CCN1NC(=O)c1cc(Cl)c(N)c2c1OC(C)(C)C2 [Compound 8] | > 10
O=c1[nH]c(NCCCN2CCC(c3noc4cc(F)ccc34)CC2)nc2ccccc12 [Compound 26] | > 10
O=c1[nH]c(NCCN2CCC(c3n[nH]c4cc(F)ccc34)CC2)nc2ccccc12 [Compound 21] | > 10
O=c1[nH]c(NCCCN2CCC(n3c(=O)[nH]c4ccccc43)CC2)nc2ccccc12 [Compound 29] | > 10
CCCCn1cc(C2CCN(CCCNc3nc4ccccc4c(=O)[nH]3)CC2)c2ccccc21 [Compound 28] | > 10
O=c1nc(NCCCN2CCC(Nc3nccc4ccccc34)CC2)[nH]c2ccccc12 [Compound 40] | > 10

The next lines start with the values.

IC50 [µM] | SMILES
0.537 | O=c1[nH]c(NCCN2CCN(c3nc4ccccc4c(=O)[nH]3)CC2)nc2ccccc12 [Compound 38]
> 10 | O=c1[nH]c(NCCN2CCN(c3n[nH]c4ccccc34)CC2)nc2ccc(Cl)cc12 [Compound 1]
7.96 | O=c1[nH]c(NCCCN2CCN(c3n[nH]c4cc(F)ccc34)CC2)nc2ccccc12 [Compound 27]
0.794 | O=c1[nH]c(NCCN2CCC(Nc3nc4ccccc4c(=O)[nH]3)CC2)nc2ccccc12 [Compound 30]
0.938 | O=c1[nH]c(NCCN2CCC(Nc3n[nH]c(=O)c4ccccc34)CC2)nc2ccccc12 [Compound 33]
> 10 | O=c1[nH]c(NCCN2CCN(c3n[nH]c4ccccc34)CC2)nc2cc(Cl)ccc12 [Compound 44]
> 10 | Cc1cccc2nc(NCCN3CCN(c4n[nH]c5ccccc45)CC3)[nH]c(=O)c12 [Compound 39]
8.45 | O=c1[nH]c(NCCCN2CCN(c3n[nH]c4ccccc34)CC2)nc2ccccc12 [Compound 22]
> 10 | Cc1ccc2nc(NCCN3CCN(c4n[nH]c5ccccc45)CC3)[nH]c(=O)c2c1 [Compound 43]
> 10 | O=c1[nH]c(NCCCN2CCN(c3nsc4ccccc34)CC2)nc2ccccc12 [Compound 24]
> 10 | O=c1[nH]c(NCCN2CCN(c3n[nH]c4cc(F)ccc34)CC2)nc2ccccc12 [Compound 41]
